Where “and” joins values, the source holds several entries; their conditions need not be identical. Equal values may be shown once. Read-outs that look alike come from different tables or passages of the source.
Assays:
[1] = tested on: MyD88-mediated NF-kB driven SEAP reporter response; type: cell-based, human
[2] = tested on: pro-inflammatory cytokine production of human PBMCs; type: cell-based
HEK293-TLR3 cells = type: cell-based, human
Rift valley fever virus = type: cell-based; conditions: read-out: IC50 reduction of virus replication
IRF3 phosphorylation = type: cell-based, human
Ebola virus = type: cell-based; conditions: read-out: IC50 reduction of virus replication
dengue virus = type: cell-based; conditions: read-out: IC50 reduction of virus replication
[3] = tested on: lethal endotoxic shock (LPS) in mice; conditions: mouse, in vivo
U937 cells = type: cell-based, human
[4] = tested on: pro-inflammatory cytokine production in spleen cells of BALB/c and C57BL/6 mice; type: cell-based, mouse
[5] = target: T1, MyD88 and IRF3 interaction (Homo sapiens, UniProt Q99836); type: cell-based
T1 construct: no number printed for the IRF3-HA plasmid; host or cells: HEK293-TLR3 (InvivoGen)

[6] = tested on: human glioblastoma astrocytoma U87 cells; type: cell-based
Lassa virus = type: cell-based; conditions: read-out: IC50 reduction of virus replication
VEEV (TC-83) = tested on: VEEV (TC-83); design: species or system C3H/HeN mice; conditions: mouse, in vivo, ip
[7] = tested on: SEB-induced toxic shock in BALB/c mice; conditions: mouse, in vivo

T1 sequence (Q99836 whole entry): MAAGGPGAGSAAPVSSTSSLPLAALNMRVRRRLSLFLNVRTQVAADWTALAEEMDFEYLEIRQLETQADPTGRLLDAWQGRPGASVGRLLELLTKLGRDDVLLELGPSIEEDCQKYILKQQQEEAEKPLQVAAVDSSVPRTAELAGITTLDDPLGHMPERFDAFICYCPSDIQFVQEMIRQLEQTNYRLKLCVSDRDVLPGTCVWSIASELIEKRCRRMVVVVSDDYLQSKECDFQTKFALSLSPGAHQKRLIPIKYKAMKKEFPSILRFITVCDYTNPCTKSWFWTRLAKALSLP

Q: For `CC(C)[C@H](NC(=O)CCc1ccccc1)C(=O)N1CCCC1` [Compound 1, Hydrocinnamoyl-L-valyl-pyrrolidine, reference compound], which IC50 [1] is on record?
A: 180 µM

Q: And the IC50 ([2]; read-out: IC50 IFN-γ)?
A: 41 µM and 40 µM

Q: What about the IC50 ([2]; read-out: IC50 IL-1β) of the same compound?
A: 24 µM

Q: What about the IC50 ([2]; read-out: IC50 IL-6) of the same compound?
A: 14 µM

Q: What about the IC50 ([2]; read-out: IC50 TNF-α) of the same compound?
A: 19 µM

Q: Which RANTES production (HEK293-TLR3 cells) does the source give for `CC(C)[C@@H](C(=O)N1CCCC1)N(CCCc1ccccc1)C(=O)[C@H]1CC[C@H](C(=O)N(CCCc2ccccc2)[C@H](C(=O)N2CCCC2)C(C)C)CC1` [Compound 4210] here?
A: increased in RANTES production

Q: And the IC50 (Rift valley fever virus)?
A: 22 µM

Q: What about the “phosphorylation of IRF-3” value (IRF3 phosphorylation) of the same compound?
A: increase in phosphorylation was observed in a dose dependent manner

Q: And the IC50 (Ebola virus)?
A: 42 µM

Q: What about the IC50 (dengue virus) of the same compound?
A: 31 µM

Q: And the effect on death [3]?
A: delayed death

Q: And the “mice protected from lethal endotoxic shock” value [3]?
A: 33%

Q: What about the RANTES production (U937 cells) of the same compound?
A: increase in antiviral RANTES production

Q: And the “expression of co-stimulatory molecules CD86 and CD80” value (U937 cells)?
A: increased expression co-stimulatory molecules such as CD86 and CD80

Q: And the “increase in IFN-β production” value (U937 cells)?
A: over 3 fold

Q: What about the “inhibition of cytokine production” value [2] of the same compound?
A: inhibited cytokine production

Q: What about the IC50 ([2]; read-out: IC50 IFN-γ) of the same compound?
A: 0.3 µM and 0.9 µM

Q: What about the IC50 ([2]; read-out: IC50 IL-1β) of the same compound?
A: 0.73 µM

Q: And the IC50 ([2]; read-out: IC50 IL-6)?
A: 0.4 µM and 0.17 µM

Q: And the IC50 ([2]; read-out: IC50 TNF-α)?
A: 0.27 µM

Q: And the IC50 ([2]; read-out: average inhibitory concentration (IC50) for most of the pro-inflammatory cytokines tested)?
A: 1 to 50 µM

Q: What about the “inhibition of pro-inflammatory cytokine production in spleen cell cultures” value [4] of the same compound?
A: inhibited most of the pro-inflammatory cytokine production

Q: And the “MyD88-associated IRF3 band after pull down with Flag antibody” value [5]?
A: dose dependent decrease of IRF3 band

Q: And the IFN-β production [6]?
A: increased IFN-β production in a dose dependent manner

Q: And the RANTES production [6]?
A: increase in RANTES production

Q: What about the IC50 (Lassa virus) of the same compound?
A: 35 µM

Q: And the clinical disease score (VEEV (TC-83))?
A: less clinical diseases score

Q: What about the survival (VEEV (TC-83)) of the same compound?
A: increased survival

Q: And the weight loss (VEEV (TC-83))?
A: significantly prevented weight loss

Q: And the “amount giving therapeutic efficacy from toxic shock-induced death with lethal SEB challenge” value [7]?
A: 1 mg

Q: What about the “effect on death, post-exposure treatment” value [7] of the same compound?
A: delayed in death

Q: What about the protection [7] of the same compound?
A: completely protected

Q: And the “protection, post-exposure treatment” value [7]?
A: 33%

Q: And the survivability [7]?
A: 33% and 66%

From US9833437B2 (priority 2014, dated 2017)
